Legend:
[1] = system: other enzymes involved in steroid hormone synthesis or metabolism; test: Single ascending dose study in women: other steroid hormone enzymes and hormone levels; assay type: in vivo, human; conditions: single doses
[2] = system: estrone, estrone sulfate and estradiol; test: Single ascending dose study in women: pharmacodynamics (estrogen suppression); assay type: in vivo, human
Method: Patients received either 0.1 mg, 1 mg, and 10 mg drug substance containing hard gelatin capsules as described in Example 2 or appropriate matching placebo capsules.
(§1) A […] (MTD) was not reached. […] Table 4 presents the PK parameters based on preliminary analysis of the concentration-time profile obtained from this study.
(§2) There were no changes in bone density by DEXA after 6 months.

[3] = Single ascending dose study in women: safety and tolerability; assay type: in vivo
Text: as §1, §2

[4] = system: DMBA-induced mammary tumors; test: Inhibition of DMBA-induced mammary tumors in rats (aromatase dependent model); assay type: in vivo; conditions: Rattus norvegicus
[5] = system: androstenedione-induced uterine hypertrophy; test: Inhibition of androstenedione-induced uterine hypertrophy in rats (aromatase dependent model); assay type: in vivo; conditions: Rattus norvegicus
[6] = Solid state properties of the drug substance (hygroscopicity, water solubility); assay type: physicochemical; conditions: crystalline powder
[7] = Single ascending dose study in pre- and post-menopausal women: pharmacokinetics; assay type: in vivo, human
Text: as §1

[8] = Pharmacokinetics after oral administration to rats; assay type: in vivo

For N#Cc1ccc(C(F)(c2ccc(C#N)cc2)n2cncn2)cc1 [CGP47645, 4,4′-[fluoro-(1-H-1,2,4-triazol-1-yl)methylene]bisbenzonitrile], the “inhibition of other enzymes involved in steroid hormone synthesis or metabolism” value [1] was “No inhibition”, the “lowest single dose at which maximal estrogen suppression was observed” value ([2]; post-menopausal women, chemiluminescence or radioimmunoassay) was 0.1 mg and the “lowest single dose at which transient estrogen suppression was seen” value ([2]; postmenopausal women) was 0.01 mg. For the same compound, the “changes in bone density by DEXA” value ([3]; in vivo) was “no changes”, the “minimal toxic dose (MTD)” value ([3]; single doses 0.01 mg through 20 mg, women) was “not reached” and the ED50 [4] was 10 µg/kg. For the same compound, the ED50 [5] was 3 µg/kg, the solubility in water [6] was “poorly soluble in water” and the “difference in pharmacokinetics between post- and pre-menopausal women” value ([7]; 0.1 mg cohorts) was “No differences”. For the same compound, the Tmax ([7]; female, human, in vivo) was 0.5 to 2 h, the half-life ([7]; female, human, in vivo) was 552 to 648 h and the “median Tmax” value ([7]; female, human, in vivo) was at most 1 h. The “AUC(0-tlast), mean” value ([7]; female, human, in vivo, 0.1 mg) was 116.2 ng·h/mL, the “Cmax, mean” value ([7]; female, human, in vivo, 0.1 mg) was 1.7 ng/mL and the “T1/2, mean” value ([7]; female, human, in vivo, 1 mg) was 538 h. The “T1/2, mean” value ([7]; female, human, in vivo, 20 mg) was 646 h, the Tmax ([7]; female, human, in vivo, po, 0.03 mg) was 0.6 h and the “dose proportionality of pharmacokinetics (Cmax & AUC)” value ([7]; human, in vivo) was “dose proportional pharmacokinetics”. The “half life in humans compared with letrozole” value ([7]; human, in vivo) was “longer half life in humans than does letrozole”, the inter-subject variability ([7]; single doses, women) was 10-30% and the “exposure expressed as AUC versus dose” value [8] was “proportional to the administered dose”.

— patent publication US10064844B2, “Pharmaceutical compositions comprising an aromatse inhibitors” (MEREO BIOPHARMA 2 LIMITED, priority 2011, dated 2018)
